Results on 1 compound are retold here after ChEMBL document CHEMBL1157515, “Discovery of a novel class of 2-ureido thiophene carboxamide checkpoint kinase inhibitors” (Bioorg Med Chem Lett, 2008).

Data set [1] can be described thus: Clearance in dog. It is filed as ADME, organism-based, Canis lupus familiaris. Conditions: in vivo.
Data set [2] is described as follows: Half life in mouse. The format is ADME, organism-based. Conditions: in vivo.
Data set [3] in a line: Inhibition of CYP. It is filed as ADME.
Data set [4] is described as follows: Half life in dog. The format is ADME, organism-based, Canis lupus familiaris. The following applies: in vivo.
Data set [5] can be described thus: Oral bioavailability in dog. The format is ADME, organism-based, Canis lupus familiaris. The following applies: in vivo.
The nature of data set [6]: Solubility of the compound. The format is physicochemical.
Data set [7] deals with Voltage-gated inwardly rectifying potassium channel KCNH2 (Homo sapiens, UniProt Q12809). Description: Inhibition of human ERG.
Sequence of Voltage-gated inwardly rectifying potassium channel KCNH2 (Q12809 whole entry): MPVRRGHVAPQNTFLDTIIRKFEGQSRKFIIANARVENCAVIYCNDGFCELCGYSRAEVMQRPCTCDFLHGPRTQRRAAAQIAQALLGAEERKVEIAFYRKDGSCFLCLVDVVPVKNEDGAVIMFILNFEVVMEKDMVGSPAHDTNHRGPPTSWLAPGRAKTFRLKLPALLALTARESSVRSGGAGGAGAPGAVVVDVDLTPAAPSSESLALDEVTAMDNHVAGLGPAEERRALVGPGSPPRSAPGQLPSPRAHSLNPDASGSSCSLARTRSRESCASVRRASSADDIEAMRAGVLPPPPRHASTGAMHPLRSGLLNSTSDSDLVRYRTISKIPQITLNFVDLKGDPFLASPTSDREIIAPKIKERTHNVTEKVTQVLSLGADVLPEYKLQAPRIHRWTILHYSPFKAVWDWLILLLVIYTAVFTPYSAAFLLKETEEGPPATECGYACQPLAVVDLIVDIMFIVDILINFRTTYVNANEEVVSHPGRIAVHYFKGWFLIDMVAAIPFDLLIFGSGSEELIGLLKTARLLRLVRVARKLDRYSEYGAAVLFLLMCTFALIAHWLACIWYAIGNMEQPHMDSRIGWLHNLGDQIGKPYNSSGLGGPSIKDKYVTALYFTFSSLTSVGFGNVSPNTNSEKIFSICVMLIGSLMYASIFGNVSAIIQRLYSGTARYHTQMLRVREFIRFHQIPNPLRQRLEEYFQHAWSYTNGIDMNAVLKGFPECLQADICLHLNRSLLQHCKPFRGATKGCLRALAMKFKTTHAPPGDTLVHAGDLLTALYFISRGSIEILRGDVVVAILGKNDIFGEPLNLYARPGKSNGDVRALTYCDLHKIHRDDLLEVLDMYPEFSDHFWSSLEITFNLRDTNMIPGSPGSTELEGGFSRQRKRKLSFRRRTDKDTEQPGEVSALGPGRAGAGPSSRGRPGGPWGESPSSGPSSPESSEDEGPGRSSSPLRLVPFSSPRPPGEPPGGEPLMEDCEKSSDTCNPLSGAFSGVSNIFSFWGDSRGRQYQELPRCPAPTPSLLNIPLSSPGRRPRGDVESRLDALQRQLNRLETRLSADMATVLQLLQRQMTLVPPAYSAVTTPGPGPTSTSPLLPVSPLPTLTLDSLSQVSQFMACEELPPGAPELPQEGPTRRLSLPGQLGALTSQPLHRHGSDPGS
The nature of data set [8]: Lipophilicity, log D of the compound. Conditions: octanol/water. The format is physicochemical.
The nature of data set [9]: Clearance in mouse. The following applies: in vivo. It is filed as ADME, organism-based.

As a reminder, the clearance is the volume of plasma or blood freed of the substance per unit of time. Higher therefore signals a high capacity for elimination. As a reminder, the half-life is the time in which the quantity being followed falls by half. A lower half-life goes with fast loss. As usually defined, the IC50 is the point on the concentration scale where inhibition reaches its midpoint. A higher IC50 goes with weaker potency in that assay. One may read the bioavailability as dose-corrected exposure relative to a reference, in per cent. A high value points to good availability. As usually defined, the solubility is the dissolved amount per volume that the medium holds. Lower therefore signals little dissolved substance. As a reminder, the logD is the decadic logarithm of the distribution of all forms, ionised or not, between an organic phase and buffer at a given pH. Read a low logD as a more hydrophilic compound. Regarding `NC(=O)Nc1sc(-c2ccccc2)cc1C(=O)N[C@H]1CCCNC1`, the clearance in data set [1] is 12.8 mL/min/kg; in data set [9], 35.7 mL/min/kg. Moreover, the half-life is 1.5 h in data set [2] and 5.2 h in [4]. The IC50 in data set [3] was greater than 10 µM; in data set [7], greater than 31.6 µM. Besides, in data set [5], the bioavailability came to 78.8%. This compound also had a solubility in data set [6] greater than 2000 µM. Further, in data set [8], the logD came to 1.28.
